# According to the supplement of paper PMC10307832:
# Columns and labels:
# Assay in all cases: relative viability (nuclei count vs DMSO), 5 days (fraction); higher = more cells survive
# 201T = tested on: 201T
# How it was run: (§1)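 Lung cancer cell lines were seeded in 1536-well plates and dosed by pin tool the next day, with either a single drug or a fixed anchor-drug dose combined with five library-drug doses (not always all listed) spaced in √10 steps. Five days later, one step fixed the cells and stained their nuclei (final 0.05% Triton X-100, 1% formaldehyde, 1 ug/ml Hoechst), and nuclei were counted on 4× images. Relative viability is the nuclei count in treated wells divided by the count in vehicle wells, and each value is the median of duplicate plates.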
# BEN = tested on: BEN
# How it was run: as §1
# CAL-12T = tested on: CAL-12T
# How it was run: as §1
# H3255 = tested on: H3255
# How it was run: as §1
# HARA = tested on: HARA
# How it was run: as §1
# HCC-15 = tested on: HCC-15
# How it was run: as §1
# HCC-827 = tested on: HCC-827
# How it was run: as §1
# LC-2-ad = tested on: LC-2-ad
# How it was run: as §1
# LCLC-103H = tested on: LCLC-103H
# How it was run: as §1
# LOU-NH91 = tested on: LOU-NH91
# How it was run: as §1
# LU99A = tested on: LU99A
# How it was run: as §1
# NCI-H1355 = tested on: NCI-H1355
# How it was run: as §1
# NCI-H1666 = tested on: NCI-H1666
# How it was run: as §1
# NCI-H1755 = tested on: NCI-H1755
# How it was run: as §1
# NCI-H1993 = tested on: NCI-H1993
# How it was run: as §1
# NCI-H2085 = tested on: NCI-H2085
# How it was run: as §1
# NCI-H2170 = tested on: NCI-H2170
# How it was run: as §1
# NCI-H2228 = tested on: NCI-H2228
# How it was run: as §1
# NCI-H2342 = tested on: NCI-H2342
# How it was run: as §1
# NCI-H23 = tested on: NCI-H23
# How it was run: as §1
# PC-3 [JPC-3] = tested on: PC-3 [JPC-3]
# How it was run: as §1
# RERF-LC-KJ = tested on: RERF-LC-KJ
# How it was run: as §1
# SK-LU-1 = tested on: SK-LU-1
# How it was run: as §1
structure (smiles),measurement,setting,value
Nc1cccc2c1CN(C1CCC(=O)NC1=O)C2=O (centres undefined) [Lenalidomide] + Nc1nc2[nH]cc(CCc3ccc(C(=O)N[C@@H](CCC(=O)O)C(=O)O)cc3)c2c(=O)[nH]1 [Pemetrexed] (partner 0.2 µM),relative viability,201T; first compound 0.253 µM,0.33
same,relative viability,201T; first compound 0.8 µM,0.325
same,relative viability,201T; first compound 2.53 µM,0.322
same,relative viability,201T; first compound 8 µM,0.287
same,relative viability,BEN; first compound 0.253 µM,0.787
same,relative viability,BEN; first compound 0.8 µM,0.608
same,relative viability,BEN; first compound 2.53 µM,0.737
same,relative viability,BEN; first compound 8 µM,0.673
same,relative viability,CAL-12T; first compound 0.253 µM,1.18
same,relative viability,CAL-12T; first compound 0.8 µM,1.32
same,relative viability,CAL-12T; first compound 2.53 µM,1.67
same,relative viability,CAL-12T; first compound 8 µM,1.57
same,relative viability,H3255; first compound 0.253 µM,0.65
same,relative viability,H3255; first compound 0.8 µM,0.565
same,relative viability,H3255; first compound 2.53 µM,0.585
same,relative viability,H3255; first compound 8 µM,0.605
same,relative viability,HARA; first compound 0.253 µM,0.258
same,relative viability,HARA; first compound 2.53 µM,0.249
same,relative viability,HARA; first compound 8 µM,0.259
same,relative viability,HCC-15; first compound 0.253 µM,0.219
same,relative viability,HCC-15; first compound 2.53 µM,0.231
same,relative viability,HCC-15; first compound 8 µM,0.228
same,relative viability,HCC-827; first compound 0.253 µM,0.276
same,relative viability,HCC-827; first compound 0.8 µM,0.269
same,relative viability,HCC-827; first compound 2.53 µM,0.252
same,relative viability,HCC-827; first compound 8 µM,0.304
same,relative viability,LC-2-ad; first compound 0.253 µM,0.269
same,relative viability,LC-2-ad; first compound 0.8 µM,0.258
same,relative viability,LC-2-ad; first compound 2.53 µM,0.262
same,relative viability,LC-2-ad; first compound 8 µM,0.269
same,relative viability,LCLC-103H; first compound 0.253 µM,0.488
same,relative viability,LCLC-103H; first compound 0.8 µM,0.476
same,relative viability,LCLC-103H; first compound 2.53 µM,0.474
same,relative viability,LCLC-103H; first compound 8 µM,0.458
same,relative viability,LOU-NH91; first compound 0.253 µM,0.398
same,relative viability,LOU-NH91; first compound 0.8 µM,0.361
same,relative viability,LOU-NH91; first compound 2.53 µM,0.408
same,relative viability,LOU-NH91; first compound 8 µM,0.406
same,relative viability,LU99A; first compound 0.253 µM,0.188
same,relative viability,LU99A; first compound 0.8 µM,0.183
same,relative viability,LU99A; first compound 2.53 µM,0.169
same,relative viability,LU99A; first compound 8 µM,0.169
same,relative viability,NCI-H1355; first compound 0.253 µM,1.08
same,relative viability,NCI-H1355; first compound 0.8 µM,0.784
same,relative viability,NCI-H1355; first compound 2.53 µM,1.13
same,relative viability,NCI-H1355; first compound 8 µM,0.738
same,relative viability,NCI-H1666; first compound 0.253 µM,0.801
same,relative viability,NCI-H1666; first compound 0.8 µM,0.878
same,relative viability,NCI-H1666; first compound 2.53 µM,0.873
same,relative viability,NCI-H1666; first compound 8 µM,0.826
same,relative viability,NCI-H1755; first compound 0.253 µM,0.441
same,relative viability,NCI-H1755; first compound 0.8 µM,0.452
same,relative viability,NCI-H1755; first compound 2.53 µM,0.691
same,relative viability,NCI-H1755; first compound 8 µM,0.448
same,relative viability,NCI-H1993; first compound 0.253 µM,0.554
same,relative viability,NCI-H1993; first compound 0.8 µM,0.561
same,relative viability,NCI-H1993; first compound 2.53 µM,0.63
same,relative viability,NCI-H1993; first compound 8 µM,0.452
same,relative viability,NCI-H2085; first compound 0.253 µM,0.884
same,relative viability,NCI-H2085; first compound 0.8 µM,0.96
same,relative viability,NCI-H2085; first compound 2.53 µM,0.924
same,relative viability,NCI-H2085; first compound 8 µM,0.873
same,relative viability,NCI-H2170; first compound 0.253 µM,0.279
same,relative viability,NCI-H2170; first compound 0.8 µM,0.282
same,relative viability,NCI-H2170; first compound 2.53 µM,0.259
same,relative viability,NCI-H2170; first compound 8 µM,0.27
same,relative viability,NCI-H2228; first compound 0.253 µM,0.345
same,relative viability,NCI-H2228; first compound 0.8 µM,0.345
same,relative viability,NCI-H2228; first compound 2.53 µM,0.358
same,relative viability,NCI-H2228; first compound 8 µM,0.358
same,relative viability,NCI-H2342; first compound 0.253 µM,0.868
same,relative viability,NCI-H2342; first compound 0.8 µM,0.774
same,relative viability,NCI-H2342; first compound 2.53 µM,0.771
same,relative viability,NCI-H2342; first compound 8 µM,0.577
same,relative viability,NCI-H23; first compound 0.253 µM,0.589
same,relative viability,NCI-H23; first compound 2.53 µM,0.861
same,relative viability,NCI-H23; first compound 8 µM,0.694
same,relative viability,PC-3 [JPC-3]; first compound 0.253 µM,1.2
same,relative viability,PC-3 [JPC-3]; first compound 0.8 µM,0.755
same,relative viability,PC-3 [JPC-3]; first compound 2.53 µM,1.21
same,relative viability,PC-3 [JPC-3]; first compound 8 µM,1.08
same,relative viability,RERF-LC-KJ; first compound 0.253 µM,0.542
same,relative viability,RERF-LC-KJ; first compound 0.8 µM,0.412
same,relative viability,RERF-LC-KJ; first compound 2.53 µM,0.503
same,relative viability,RERF-LC-KJ; first compound 8 µM,0.503
same,relative viability,SK-LU-1; first compound 0.253 µM,1.04
same,relative viability,SK-LU-1; first compound 0.8 µM,1.07
same,relative viability,SK-LU-1; first compound 2.53 µM,1.12
same,relative viability,SK-LU-1; first compound 8 µM,1.11
